Measured values reported in patent publication EP4745137A1 (Gluetacs Therapeutics (Shanghai) Co., Ltd., priority 2023, dated 2025).

Key:
[1] = tested on: MM.1R; assay: Tumor cell proliferation inhibition (CellTiter-Meiluncell Luminescent Cell Viability Assay), MM.1R; details: Homo sapiens, 96 h, read-out: inhibitory activity (IC50, nM) against tumor cells proliferation, MM.1R
[2] = tested on: Human breast cancer cells (MDA-MB-231); assay: Tumor cell proliferation inhibition (CellTiter-Meiluncell Luminescent Cell Viability Assay), MDA-MB-231; details: MDA-MB-231, 96 h, read-out: inhibitory activity (IC50, nM) against tumor cells proliferation, MDA-MB-231
Experimental: (§1) The tumor cells used herein were cultured in a cell culture medium listed in table 2 at 37°C in an incubator with 5% CO2. Prior to experimentation, all cell lines used were correctly identified by STR profiling, and tested negative for mycoplasma contamination using a mycoplasma detection kit through routine screenings.
(§2) On the following day, the test compounds of the present disclosure were subjected to serial dilution. […] Subsequently, 0.5 µL of the test compound dilution was transferred into the 96-well plate containing the cells, with each well containing 100 µL of cell culture medium. […] Into the 96-well plate, the diluted test compounds and corresponding detection reagents were added, resulting in final test compound concentrations of 500 nM and 10 nM, respectively. The experimental procedure is described below using the diluted 2 µM test compound as an example.
(§3) After the cells were treated with the compounds of the present disclosure for a specified period (the treatment durations were shown in Table 3), the cell viability assay reagent was added to the culture medium according to the kit's instructions to determine cell viability. […] All controls were treated using the same procedure as the compounds of the present disclosure. The growth inhibition curves for the compounds of the present disclosure were plotted using Prism GraphPad software, and the IC50 values were calculated therefrom.

[3] = tested on: Human acute T lymphocytic leukemia cells (Molt-4); assay: Tumor cell proliferation inhibition (CellTiter-Meiluncell Luminescent Cell Viability Assay), Molt-4; details: MOLT-4, 96 h, read-out: inhibitory activity (IC50, nM) against tumor cells proliferation, Molt 4
[4] = biological target: T1, GSPT1 (Homo sapiens, UniProt P15170+Q96SW2); assay: Western-blot assay of substrate protein degradation in hPBMCs, GSPT1; format: cell-based; details: 24 hours of compound treatment, compounds tested at 50 nM and 500 nM (concentration of the table not stated)
T1 construct: endogenous in cells; host or cells: hPBMCs (Milecell Biotechnologies)

[5] = tested on: Jurkat; assay: Tumor cell proliferation inhibition (CellTiter-Meiluncell Luminescent Cell Viability Assay), Jurkat; details: Homo sapiens, 96 h, read-out: inhibitory activity (IC50, nM) against tumor cells proliferation, Jurkat
[6] = biological target: T2, WEE1 (Homo sapiens, UniProt P30291+Q96SW2); assay: Western-blot assay of substrate protein degradation in hPBMCs, WEE1; format: cell-based; details: 24 hours of compound treatment, compounds tested at 50 nM and 500 nM (concentration of the table not stated)
T2 construct: endogenous in cells; host or cells: hPBMCs (Milecell Biotechnologies)

[7] = biological target: T3, IKZF1 (Homo sapiens, UniProt Q13422+Q96SW2); assay: Western-blot assay of substrate protein degradation in hPBMCs, IKZF1; format: cell-based; details: 24 hours of compound treatment, compounds tested at 50 nM and 500 nM (concentration of the table not stated)
T3 construct: endogenous in cells; host or cells: hPBMCs (Milecell Biotechnologies)

[8] = biological target: T4, IKZF2 (Homo sapiens, UniProt Q96SW2+Q9UKS7); assay: Western-blot assay of substrate protein degradation in hPBMCs, IKZF2; format: cell-based; details: 24 hours of compound treatment, compounds tested at 50 nM and 500 nM (concentration of the table not stated)
T4 construct: endogenous in cells; host or cells: hPBMCs (Milecell Biotechnologies)

[9] = tested on: Vcap; assay: Tumor cell proliferation inhibition (CellTiter-Meiluncell Luminescent Cell Viability Assay), Vcap; details: Homo sapiens, 96 h, read-out: inhibitory activity (IC50, nM) against tumor cells proliferation, Vcap
Experimental: as §1, §2, §3

[10] = biological target: T5, IKZF3 (Homo sapiens, UniProt Q96SW2+Q9UKT9); assay: Western-blot assay of substrate protein degradation in hPBMCs, IKZF3; format: cell-based; details: 24 hours of compound treatment, compounds tested at 50 nM and 500 nM (concentration of the table not stated)
T5 construct: endogenous in cells; host or cells: hPBMCs (Milecell Biotechnologies)

[11] = biological target: T6, human Cereblon WT GST-tagged protein (Homo sapiens, UniProt Q96SW2); assay: CRBN-binding affinity by HTRF (CEREBLON BINDING kit); details: HTRF inhibitory activity, CEREBLON BINDING kit; read-out: HTRF IC50
T6 construct: purchased CISBIO 64BDCRBNPEH

[12] = biological target: T7, CK1α (Homo sapiens, UniProt P48729+Q96SW2); assay: Western-blot assay of substrate protein degradation in hPBMCs, CK1α; format: cell-based; details: 24 hours of compound treatment, compounds tested at 50 nM and 500 nM (concentration of the table not stated)
T7 construct: endogenous in cells; host or cells: hPBMCs (Milecell Biotechnologies)

[13] = tested on: CAL-62; assay: Tumor cell proliferation inhibition (CellTiter-Meiluncell Luminescent Cell Viability Assay), CAL-62; details: Homo sapiens, CAL-62, 96 h, read-out: inhibitory activity (IC50, nM) against tumor cells proliferation, CAL-62
[14] = tested on: SW620; assay: Tumor cell proliferation inhibition (CellTiter-Meiluncell Luminescent Cell Viability Assay), SW620; details: Homo sapiens, SW-620, 96 h, read-out: inhibitory activity (IC50, nM) against tumor cells proliferation, SW620
[15] = tested on: NCI-H1975; assay: Tumor cell proliferation inhibition (CellTiter-Meiluncell Luminescent Cell Viability Assay), NCI-H1975; details: Homo sapiens, NCI-H1975, 96 h, read-out: inhibitory activity (IC50, nM) against tumor cells proliferation, H1975
Experimental: as §1, §2, §3

[16] = tested on: CCRF-CEM; assay: Tumor cell proliferation inhibition (CellTiter-Meiluncell Luminescent Cell Viability Assay), CCRF-CEM; details: Homo sapiens, 96 h, read-out: inhibitory activity (IC50, nM) against tumor cells proliferation, CCRF-CEM
[17] = tested on: MGC803; assay: Tumor cell proliferation inhibition (CellTiter-Meiluncell Luminescent Cell Viability Assay), MGC803; details: Homo sapiens, MGC-803, 96 h, read-out: inhibitory activity (IC50, nM) against tumor cells proliferation, MGC803
[18] = tested on: SR; assay: Tumor cell proliferation inhibition (CellTiter-Meiluncell Luminescent Cell Viability Assay), SR; details: Homo sapiens, 96 h, read-out: inhibitory activity (IC50, nM) against tumor cells proliferation, SR

T4 sequence (Q9UKS7 whole entry): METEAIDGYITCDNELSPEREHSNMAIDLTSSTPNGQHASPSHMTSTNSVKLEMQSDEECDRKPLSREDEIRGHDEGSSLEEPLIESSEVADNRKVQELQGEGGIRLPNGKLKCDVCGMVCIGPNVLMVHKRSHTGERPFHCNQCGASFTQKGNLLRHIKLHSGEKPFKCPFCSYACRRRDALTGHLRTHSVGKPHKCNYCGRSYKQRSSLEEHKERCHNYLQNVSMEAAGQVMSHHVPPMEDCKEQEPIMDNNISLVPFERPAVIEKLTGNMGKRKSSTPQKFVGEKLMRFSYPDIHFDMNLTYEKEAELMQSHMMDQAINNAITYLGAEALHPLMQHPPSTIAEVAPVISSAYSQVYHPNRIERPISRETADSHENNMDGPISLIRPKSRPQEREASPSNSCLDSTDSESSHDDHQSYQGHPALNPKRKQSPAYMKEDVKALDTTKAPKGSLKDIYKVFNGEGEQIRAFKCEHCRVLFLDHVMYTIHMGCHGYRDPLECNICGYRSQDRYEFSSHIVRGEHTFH
T4 sequence (Q96SW2 whole entry): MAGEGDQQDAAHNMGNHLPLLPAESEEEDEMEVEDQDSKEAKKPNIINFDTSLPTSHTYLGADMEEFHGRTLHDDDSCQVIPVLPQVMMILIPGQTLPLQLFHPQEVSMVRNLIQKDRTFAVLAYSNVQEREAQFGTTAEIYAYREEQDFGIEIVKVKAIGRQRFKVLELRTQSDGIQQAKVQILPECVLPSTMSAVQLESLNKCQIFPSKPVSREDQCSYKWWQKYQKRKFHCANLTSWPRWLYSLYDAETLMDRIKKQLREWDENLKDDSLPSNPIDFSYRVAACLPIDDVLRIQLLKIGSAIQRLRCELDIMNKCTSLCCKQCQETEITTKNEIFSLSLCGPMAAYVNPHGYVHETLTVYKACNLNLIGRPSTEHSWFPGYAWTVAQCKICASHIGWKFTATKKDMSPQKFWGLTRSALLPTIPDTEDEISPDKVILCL
T4 sequence (Q16531 whole entry partner): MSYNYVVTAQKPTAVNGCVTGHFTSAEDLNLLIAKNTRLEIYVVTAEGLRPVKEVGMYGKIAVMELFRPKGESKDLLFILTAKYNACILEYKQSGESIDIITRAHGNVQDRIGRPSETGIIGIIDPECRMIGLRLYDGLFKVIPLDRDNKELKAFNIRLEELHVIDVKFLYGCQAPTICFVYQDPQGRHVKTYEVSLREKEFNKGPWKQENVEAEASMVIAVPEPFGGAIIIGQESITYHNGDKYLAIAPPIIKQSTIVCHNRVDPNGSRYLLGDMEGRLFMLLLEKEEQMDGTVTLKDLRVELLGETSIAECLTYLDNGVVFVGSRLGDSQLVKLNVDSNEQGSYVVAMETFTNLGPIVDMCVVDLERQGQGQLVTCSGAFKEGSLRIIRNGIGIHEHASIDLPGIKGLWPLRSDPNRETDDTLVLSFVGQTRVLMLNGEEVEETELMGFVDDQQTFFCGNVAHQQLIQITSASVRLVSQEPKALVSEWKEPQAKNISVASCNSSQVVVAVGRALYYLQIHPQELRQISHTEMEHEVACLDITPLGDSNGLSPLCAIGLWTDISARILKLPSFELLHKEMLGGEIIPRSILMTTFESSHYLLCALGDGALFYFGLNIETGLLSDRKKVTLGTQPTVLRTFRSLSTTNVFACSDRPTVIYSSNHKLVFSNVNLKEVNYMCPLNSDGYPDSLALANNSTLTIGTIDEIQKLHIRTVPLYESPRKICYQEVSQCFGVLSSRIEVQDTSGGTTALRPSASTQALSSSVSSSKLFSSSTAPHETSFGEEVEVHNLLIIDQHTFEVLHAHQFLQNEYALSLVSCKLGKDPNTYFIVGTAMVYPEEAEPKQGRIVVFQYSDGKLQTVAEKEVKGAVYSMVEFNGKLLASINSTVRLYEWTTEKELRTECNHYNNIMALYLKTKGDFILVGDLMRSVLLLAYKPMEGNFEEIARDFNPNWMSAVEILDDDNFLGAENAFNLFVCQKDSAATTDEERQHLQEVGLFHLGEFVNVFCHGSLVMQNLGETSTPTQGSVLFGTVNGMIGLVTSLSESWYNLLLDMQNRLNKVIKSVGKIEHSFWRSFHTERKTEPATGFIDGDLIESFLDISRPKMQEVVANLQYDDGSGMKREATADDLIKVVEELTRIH
T2 sequence (P30291 whole entry): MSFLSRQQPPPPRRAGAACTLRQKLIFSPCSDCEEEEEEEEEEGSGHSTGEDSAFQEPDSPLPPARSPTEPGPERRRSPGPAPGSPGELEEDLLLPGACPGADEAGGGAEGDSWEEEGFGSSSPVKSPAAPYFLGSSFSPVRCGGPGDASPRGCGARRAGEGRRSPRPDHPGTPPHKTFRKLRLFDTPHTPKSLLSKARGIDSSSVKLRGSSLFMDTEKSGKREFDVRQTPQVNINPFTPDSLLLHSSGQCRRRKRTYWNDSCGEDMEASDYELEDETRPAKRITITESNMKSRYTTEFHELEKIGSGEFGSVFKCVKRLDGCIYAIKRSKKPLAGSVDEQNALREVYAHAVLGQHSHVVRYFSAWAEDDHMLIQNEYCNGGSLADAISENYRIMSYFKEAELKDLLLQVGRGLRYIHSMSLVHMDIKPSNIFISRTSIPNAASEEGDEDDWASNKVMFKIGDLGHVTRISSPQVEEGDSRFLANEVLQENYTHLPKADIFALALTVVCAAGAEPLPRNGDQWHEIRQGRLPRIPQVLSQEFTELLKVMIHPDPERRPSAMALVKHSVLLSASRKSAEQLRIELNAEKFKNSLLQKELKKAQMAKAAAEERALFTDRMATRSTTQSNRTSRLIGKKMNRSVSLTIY
T2 sequence (Q96SW2 whole entry): as the sequence (Q96SW2 whole entry) above
T2 sequence (Q16531 whole entry partner): as the sequence (Q16531 whole entry partner) above
T7 sequence (P48729 whole entry): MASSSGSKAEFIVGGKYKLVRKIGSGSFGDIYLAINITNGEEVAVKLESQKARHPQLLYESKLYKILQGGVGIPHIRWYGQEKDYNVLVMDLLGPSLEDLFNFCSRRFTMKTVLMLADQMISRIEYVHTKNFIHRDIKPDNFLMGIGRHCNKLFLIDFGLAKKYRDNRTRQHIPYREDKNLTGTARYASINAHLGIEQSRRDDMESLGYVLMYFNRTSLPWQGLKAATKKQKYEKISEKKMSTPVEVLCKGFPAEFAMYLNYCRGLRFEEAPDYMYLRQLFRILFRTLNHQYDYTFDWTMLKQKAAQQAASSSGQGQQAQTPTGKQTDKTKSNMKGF
T7 sequence (Q96SW2 whole entry): as the sequence (Q96SW2 whole entry) above
T7 sequence (Q16531 whole entry partner): as the sequence (Q16531 whole entry partner) above
T1 sequence (P15170 whole entry): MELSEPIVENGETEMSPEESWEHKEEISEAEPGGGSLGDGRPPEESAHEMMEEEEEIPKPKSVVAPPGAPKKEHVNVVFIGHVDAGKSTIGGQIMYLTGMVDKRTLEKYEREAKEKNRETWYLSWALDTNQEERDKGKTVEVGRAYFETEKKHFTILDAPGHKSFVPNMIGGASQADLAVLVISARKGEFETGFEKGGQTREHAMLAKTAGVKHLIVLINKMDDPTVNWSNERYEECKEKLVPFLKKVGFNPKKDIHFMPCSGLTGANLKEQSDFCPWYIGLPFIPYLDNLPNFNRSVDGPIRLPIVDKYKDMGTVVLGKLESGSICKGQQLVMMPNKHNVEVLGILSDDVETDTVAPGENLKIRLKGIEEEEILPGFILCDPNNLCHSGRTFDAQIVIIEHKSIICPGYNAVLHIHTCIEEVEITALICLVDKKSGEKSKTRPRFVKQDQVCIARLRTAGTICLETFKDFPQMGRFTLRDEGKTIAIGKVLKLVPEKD
T1 sequence (Q96SW2 whole entry): as the sequence (Q96SW2 whole entry) above
T1 sequence (Q16531 whole entry partner): as the sequence (Q16531 whole entry partner) above
T3 sequence (Q13422 whole entry): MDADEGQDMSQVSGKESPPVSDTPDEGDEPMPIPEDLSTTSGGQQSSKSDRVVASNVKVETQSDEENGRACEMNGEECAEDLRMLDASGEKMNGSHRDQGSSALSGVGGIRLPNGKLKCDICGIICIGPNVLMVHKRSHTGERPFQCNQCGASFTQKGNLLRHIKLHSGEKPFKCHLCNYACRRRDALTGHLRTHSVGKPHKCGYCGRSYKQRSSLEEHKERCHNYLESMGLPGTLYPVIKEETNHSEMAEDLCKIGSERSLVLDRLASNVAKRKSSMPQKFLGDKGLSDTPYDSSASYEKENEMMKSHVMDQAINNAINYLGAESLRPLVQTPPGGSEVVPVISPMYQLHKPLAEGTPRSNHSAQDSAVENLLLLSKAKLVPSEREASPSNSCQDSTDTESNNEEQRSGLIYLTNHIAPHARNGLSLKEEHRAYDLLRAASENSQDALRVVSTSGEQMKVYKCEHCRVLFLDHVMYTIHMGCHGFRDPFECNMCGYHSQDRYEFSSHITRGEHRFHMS
T3 sequence (Q96SW2 whole entry): as the sequence (Q96SW2 whole entry) above
T3 sequence (Q16531 whole entry partner): as the sequence (Q16531 whole entry partner) above
T6 sequence (Q96SW2 whole entry): as the sequence (Q96SW2 whole entry) above

Structure (SMILES) | IC50 [1] | IC50 [2] | IC50 [3] | GSPT1 substrate protein remaining % [4] | IC50 [5] | Weel substrate protein remaining % [6] | IKZF 1 substrate protein remaining % [7] | IKZF2 substrate protein remaining % [8] | IC50 [9] | IKZF3 substrate protein remaining % [10] | IC50 [11] | CK1a substrate protein remaining % [12] | IC50 [13] | IC50 [14] | IC50 [15] | IC50 [16] | IC50 [17] | IC50 [18]
O=C1CCC(N2Cc3cc(CN4CCC(c5cccc(Br)c5)CC4)ccc3C2=O)C(=O)N1 (stereo not drawn) [GT-04466, 3-(5-((4-(3-bromophenyl)piperidin-1-yl)methyl)-1-oxoisoindolin-2-yl)piperidine-2,6-dione] | 1 to 5 nM | 10 to 50 nM | 1 to 5 nM | A (0% ≤ substrate protein remaining % ≤ 80%) | 1 to 5 nM | A (0% ≤ substrate protein remaining % ≤ 80%) | A (0% ≤ substrate protein remaining % ≤ 80%) | A (0% ≤ substrate protein remaining % ≤ 80%) | 10 to 50 nM | A (0% ≤ substrate protein remaining % ≤ 80%) | 500 to 1000 nM | A (0% ≤ substrate protein remaining % ≤ 80%) | 5 to 10 nM | 10 to 50 nM | 10 to 50 nM | 1 to 5 nM | 50 to 100 nM | 50 to 100 nM
O=C1CCC(N2Cc3cc(CN4CCN(c5cccc(Br)c5)CC4)ccc3C2=O)C(=O)N1 (stereo not drawn) [GT-04467, 3-(5-((4-(3-bromophenyl)piperazin-1-yl)methyl)-1-oxoisoindolin-2-yl)piperidine-2,6-dione] | 1 to 5 nM | 10 to 50 nM | 1 to 5 nM | A (0% ≤ substrate protein remaining % ≤ 80%) | 1 to 5 nM | A (0% ≤ substrate protein remaining % ≤ 80%) | A (0% ≤ substrate protein remaining % ≤ 80%) | A (0% ≤ substrate protein remaining % ≤ 80%) | 5 to 10 nM | A (0% ≤ substrate protein remaining % ≤ 80%) | 500 to 1000 nM | A (0% ≤ substrate protein remaining % ≤ 80%) | 1 to 5 nM | 10 to 50 nM | 10 to 50 nM | 1 to 5 nM | 10 to 50 nM | 10 to 50 nM
O=C1CCC(N2Cc3cc(CN4CCN(c5cc(Cl)ccc5Cl)CC4)ccc3C2=O)C(=O)N1 (stereo not drawn) [GT-04487, 3-(5-((4-(2,5-dichlorophenyl)piperazin-1-yl)methyl)-1-oxoisoindolin-2-yl)piperidine-2,6-dione] | 10 to 50 nM | 100 to 500 nM | 5 to 10 nM | A (0% ≤ substrate protein remaining % ≤ 80%) | 5 to 10 nM | B (80%< substrate protein remaining %≤ 100%) | B (80%< substrate protein remaining %≤ 100%) | A (0% ≤ substrate protein remaining % ≤ 80%) | 10 to 50 nM | B (80%< substrate protein remaining %≤ 100%) | 500 to 1000 nM | A (0% ≤ substrate protein remaining % ≤ 80%) | 10 to 50 nM | 100 to 500 nM | 50 to 100 nM | 5 to 10 nM | 50 to 100 nM | 100 to 500 nM
Cc1cc(Cl)cc(N2CCN(Cc3ccc4c(c3)CN(C3CCC(=O)NC3=O)C4=O)CC2)n1 (stereo not drawn) [GT-04491, 3-(5-((4-(4-chloro-6-methylpyridin-2-yl)piperazin-1-yl)methyl)-1-oxoisoindolin-2-yl)piperidine-2,6-dione] | 10 to 50 nM | 100 to 500 nM | 5 to 10 nM | A (0% ≤ substrate protein remaining % ≤ 80%) | 5 to 10 nM | B (80%< substrate protein remaining %≤ 100%) | B (80%< substrate protein remaining %≤ 100%) | A (0% ≤ substrate protein remaining % ≤ 80%) | 10 to 50 nM | B (80%< substrate protein remaining %≤ 100%) | 500 to 1000 nM | A (0% ≤ substrate protein remaining % ≤ 80%) | 10 to 50 nM | 100 to 500 nM | 100 to 500 nM | 5 to 10 nM | 500 to 1000 nM | 100 to 500 nM
O=C1CCC(N2Cc3cc(CN4CC=C(c5cccs5)CC4)ccc3C2=O)C(=O)N1 (stereo not drawn) [GT-04494, 3-(1-oxo-5-((4-(thiophen-2-yl)-3,6-dihydropyridin-1(2H)-yl)methyl)isoindolin-2-yl)piperidine-2,6-dione] | < 1 nM | 10 to 50 nM | 1 to 5 nM | A (0% ≤ substrate protein remaining % ≤ 80%) | < 1 nM | A (0% ≤ substrate protein remaining % ≤ 80%) | B (80%< substrate protein remaining %≤ 100%) | A (0% ≤ substrate protein remaining % ≤ 80%) | 1 to 5 nM | B (80%< substrate protein remaining %≤ 100%) | < 500 nM | A (0% ≤ substrate protein remaining % ≤ 80%) | 1 to 5 nM | 5 to 10 nM | 10 to 50 nM | 1 to 5 nM | 10 to 50 nM | 5 to 10 nM
O=C1CCC(N2Cc3cc(CN4CCN(c5cc(F)cc(F)c5)CC4)ccc3C2=O)C(=O)N1 (stereo not drawn) [GT-04496, 3-(5-((4-(3,5-difluorophenyl)piperazin-1-yl)methyl)-1-oxoisoindolin-2-yl)piperidine-2,6-dione] | 10 to 50 nM | 100 to 500 nM | 5 to 10 nM | A (0% ≤ substrate protein remaining % ≤ 80%) | 5 to 10 nM | B (80%< substrate protein remaining %≤ 100%) | B (80%< substrate protein remaining %≤ 100%) | A (0% ≤ substrate protein remaining % ≤ 80%) | 10 to 50 nM | B (80%< substrate protein remaining %≤ 100%) | 500 to 1000 nM | A (0% ≤ substrate protein remaining % ≤ 80%) | 10 to 50 nM | 100 to 500 nM | 100 to 500 nM | 5 to 10 nM | 100 to 500 nM | 100 to 500 nM
